Reference: US8993606B2, “Oral formulations for treating metal overload” (FerroKin BioSciences, Inc., priority 2011, dated 2015)

What was measured:
[1] = tested on: healthy subjects; experiment: Safety: single-dose study in healthy subjects (3, 6, 10, 16 mg/kg); type: in vivo; settings: for Arthralgia / Colitis / Flatulence / Gastroenteritis / Headache / Somnolence / Total Number (%) of Subjects Experiencing Adverse Events / Total Number of Subjects Experiencing NO Adverse Events / Upper respiratory tract infection: 3 subjects
Excerpt: Example 8 was a double-blind, placebo-controlled single dose-escalating study in healthy subjects. Men between the ages of 18-45 years qualified to participate if they were able to voluntarily give consent and had no clinically significant abnormal findings at the screening evaluation. Specifically, subjects had blood pressure in the normal range, ECG and clinical laboratory values within normal limits, tested negative for drugs of abuse and had not recently donated blood. Subjects were also HIV, Hepatitis B, and Hepatitis C negative and agreed to use an approved method of contraception during the study.
The objectives of this study were to assess the safety, tolerability, and pharmacokinetics of ascending single doses of Compound 1 compared to placebo. Additionally, dose proportionality and pharmacodynamics of Compound 1 were assessed. Four doses of Compound 1 (3, 6, 10, and 16 mg/kg), in capsule form, were evaluated in this study. Following screening, subjects in a given cohort were randomly assigned to receive either Compound 1 or placebo. In the first cohort, 3 subjects received […] and 2 received placebo; in each of the subsequent remaining 3 cohorts, 3 subjects received the next higher dose of Compound 1 and 1 received placebo. Subjects were dosed and then confined to the clinical research unit for 24 hours to conduct safety and pharmacokinetic assessments. Subjects were released from the clinic on Day 2 and returned daily for follow-up visits for 5 days post-dosing.
All 17 enrolled subjects completed the study: Twelve received a single dose of Compound 1 (3, 6, 10, and 16 mg/kg) and 5 received placebo. […] Treatment-emergent adverse events (TEAEs) were reported for 5 of the 12 subjects receiving Compound 1 (Table 28 and 29). A total of 9 AEs were reported; 8 treatment-emergent, and 1 pre-dose, all in subjects receiving Compound 1. […] Additionally, there were no clear differences in safety as evaluated by clinical laboratory assessments, vital sign measurements, and ECG parameters between subjects who had received Compound 1 compared with those who received placebo, and no apparent dose-related trends in these safety assessments in subjects who received Compound 1.

[2] = tested on: adults with transfusional iron overload; experiment: Example 10: efficacy study, liver iron concentration (LIC); type: in vivo, human; settings: for % with net iron reduction / Mean net change in hepatic iron: first 24 weeks; for LIC, Week 12 / LIC, Week 24 / LIC, Week 48: patients entering extension study
Protocol: In this Example, the safety and efficacy of Compound 1 in adults with transfusional iron overload over 48 weeks of treatment was assessed. Diagnosis and transfusional iron burden of patients (including Asians, Blacks/African Americans, and Whites) at randomization are as follows: 38 patients diagnosed with β-thalassemia major, 2 patients diagnosed with α-thalassemia major, 2 diagnosed with β-thalassemia intermedia (transfusion>7/year), 6 diagnosed with HbE-β thalassemia, and 3 diagnosed with Sickle cell disease. The patients were divided into two dosing groups: 14.5 mg/kg/day and 29 mg/kg/day. Average liver iron content at baseline (mg/g dry weight) was 13.2 with SD 6.64 for the 14.5 mg/kg/day dosing group and 13.9 with SD 7.82 for the 29 mg/kg/day dosing group. Median serum ferritin (ng/ml) was 2564 for the 14.5 mg/kg/day dosing group and 2624 for the 29 mg/kg/day dosing group. Mean pre-transfusion average haemoglobin of previous 3 transfusions (g/dL) was 9.6 (with SD of 0.56) for the 14.5 mg/kg/day dosing group and 9.8 (with SD of 0.79) for the 29 mg/kg/day dosing group. Mean daily transfusion iron intake (mg/kg/d) was about 0.36 (ranging 0.22-0.84) for the 14.5 mg/kg/day dosing group and 0.38 (ranging 0.17-0.60) for the 29 mg/kg/day dosing group. See also FIGS. 7 and 8.

## COCCOCCOCCOc1cccc(C2=N[C@@](C)(C(=O)O)CS2)c1O [Compound 1, (S)-4,5-Dihydro-2-[2-hydroxy-3-(3,6,9-trioxadecyloxy)phenyl]-4-methyl-4-thiazolecarboxylate magnesium hydroxide]
[1]; 3 mg/kg
  Arthralgia: 0 Number (%) Subjects
  Colitis: 0 Number (%) Subjects
  Flatulence: 0 Number (%) Subjects
  Gastroenteritis: 1 (33%) Number (%) Subjects
  Headache: 0 Number (%) Subjects
  Somnolence: 1 (33%) Number (%) Subjects
  Total Number (%) of Subjects Experiencing Adverse Events: 1 (33%) Number (%)
  Total Number of Subjects Experiencing NO Adverse Events: 2 (67%)
  Upper respiratory tract infection: 0 Number (%) Subjects
[1]; 6 mg/kg
  Arthralgia: 1 (33%) Number (%) Subjects
  Colitis: 0 Number (%) Subjects
  Flatulence: 0 Number (%) Subjects
  Gastroenteritis: 0 Number (%) Subjects
  Headache: 0 Number (%) Subjects
  Somnolence: 0 Number (%) Subjects
  Total Number (%) of Subjects Experiencing Adverse Events: 1 (33%) Number (%)
  Total Number of Subjects Experiencing NO Adverse Events: 2 (67%)
  Upper respiratory tract infection: 1 (33%) Number (%) Subjects
[1]; 10 mg/kg
  Colitis: 0 Number (%) Subjects
  Flatulence: 0 Number (%) Subjects
  Gastroenteritis: 0 Number (%) Subjects
  Headache: 0 Number (%) Subjects
  Somnolence: 0 Number (%) Subjects
  Total Number (%) of Subjects Experiencing Adverse Events: 0 Number (%)
  Total Number of Subjects Experiencing NO Adverse Events: 3 (100%)
  Upper respiratory tract infection: 0 Number (%) Subjects
[1]; 16 mg/kg
  Arthralgia: 0 Number (%) Subjects
  Colitis: 1 (33%) Number (%) Subjects
  Flatulence: 1 (33%) Number (%) Subjects
  Headache: 1 (33%) Number (%) Subjects
  Somnolence: 0 Number (%) Subjects
  Total Number (%) of Subjects Experiencing Adverse Events: 3 (100%) Number (%)
  Total Number of Subjects Experiencing NO Adverse Events: 0
  Upper respiratory tract infection: 0 Number (%) Subjects
[1]; single dose 3, 6, 10, 16 mg/kg
  tolerability: well tolerated
[1]; single dose 3-16 mg/kg
  deaths, SAEs, withdrawals due to AEs: no deaths, no serious adverse events (SAEs), and no withdrawals due to AEs
  subjects with treatment-emergent adverse events (TEAEs): 5 of the 12
  total AEs reported: 9 AEs
  treatment-emergent AEs: 8
[2]; 14.5 mg/kg
  % with net iron reduction: 29%
  Mean net change in hepatic iron: 3.1 mg/g-dw
[2]; 29 mg/kg
  % with net iron reduction: 44%
  Mean net change in hepatic iron: −0.3 mg/g-dw
[2]; initial dose 14.5 mg/kg/day
  LIC, Week 12: 13.7 (1.74)
  LIC, Week 24: 13.6 (1.94)
  LIC, Week 48: 11.7 (1.46)
[2]; initial dose 29 mg/kg/day
  LIC, Week 12: 13.6 (2.04)
  LIC, Week 24: 12.8 (1.79)
  LIC, Week 48: 11.8 (2.04)
[2]; once daily oral, dose as low as 14.5 mg/kg of body weight
  effect on liver iron concentration in iron overload patients: reduces liver iron concentration
